Values after ≈ are worked out from the molar mass of the structure shown. Residues, ends and D or L forms follow the SMILES beside them.
Key:
[1] = tested on: Escherichia coli (ATCC 8739); format: cell-based; conditions: ATCC 8739
From the text: The Gram-positive strains Enterococcus faecalis (ATCC 29212), Staphylococcus aureus (HNCMO112011), and Listeria monocytogenes (ATCC 19111), and the Gram-negative strains Pseudomonas aeruginosa (ATCC 27853), Escherichia coli (ATCC 8739), Salmonella enterica (ATCC 13076), Klebsiella pneumoniae (NCTC 13440), and Acinetobacter baumannii (ATCC 17978) were obtained from ATCC (United States) and NCTC (National Collection of Type Cultures – England).
Minimal bactericidal concentrations (MBC) of peptides and reference antibiotics were determined in 20 mM potassium phosphate buffer (PPB, pH 7.4) and Mueller–Hinton broth (MHB) as described by ([Jenei et al., 2020]). Briefly, bacterial cultures were grown to mid-log phase, washed, adjusted to OD₆₀₀ = 0.1 (∼10⁷ CFU/mL), added 10 μl of it into 100 μl mixture and incubated in 96-well plates with 2-fold serial dilutions of peptides or antibiotics. After incubation at 37 °C with shaking, bacterial viability was assessed by plating 5 μL aliquots on LB agar. MBC was defined as the lowest concentration yielding no colony growth. […]
Three biological replicates were treated at OD600 = 0.2 with a final concentration of 1.6 µM NCR169C17–38 peptide for 20 min, while the control samples were treated with the same amount of water for 20 min. […] Quality and quantity was detected using 2200 TapeStation (Agilent) and Qubit RNA BR Assay […]

[2] = tested on: E. coli; format: cell-based, Escherichia coli; conditions: 8 h
Protocol: For serum stability test human blood was purchased from the Regional Blood Centre in Szeged (the use of human blood has been authorized by the Regional Hungarian Ethics Committee and approved by the Ethics Review Sector of DG RTD (European Commission) in connection with EK’s ERC AdG SymBiotics). The cells from 10 ml of EDTA-blood were centrifuged at 1500 × g for 1 min and washed several times in TBS buffer (10 mM Tris, pH: 7.2, 150 mM NaCl) until the supernatant, representing the serum, became colorless. The NCR169C17–38 peptide was added to the serum at 1:1 ratio and incubated at room temperature for 8 h. Subsequently, serial 2-fold dilutions of the peptide were prepared in PPB, with concentrations ranging from 100 to 0.2 µM and antimicrobial assay was done to determine the MBC values. Experiments were done in three biological replicates.

[3] = tested on: circular plasmid DNA (pDEST-GBKT7); experiment: Gel retardation assay; format: binding; conditions: 250 ng circular plasmid DNA, peptide 50 µM to 0.8 µM
Protocol: The DNA- and RNA-binding abilities of NCR169C17–38, its parental peptide NCR169, and two shorter derivatives (NCR169_16–27 and NCR169_17–27) were initially evaluated using a gel retardation assay. In this setup, 100 ng of either E. coli genomic DNA or total RNA was incubated with 10 µM or 100 µM of each peptide for 30 min at 37 °C. Reaction mixtures, along with untreated controls, were then subjected to agarose gel electrophoresis, and the resulting nucleic acid migration patterns were examined for changes indicative of peptide binding. The interaction of NCR169C17–38 with circular plasmid DNA (pDEST-GBKT7) was also characterized using peptide concentrations ranging from 50 µM to 0.8 µM, prepared by 2-fold serial dilution. Experiments were done in three biological replicates.
To explore whether the NCR169C17–38 peptide has secondary intracellular targets of the bacterial cells beyond the primary membrane disruption, we tested its possible interaction with nucleic acids in gel retardation assays. A pilot experiment indicated strong DNA-binding capacity, prompting us to include the parental NCR169 peptide and the shorter derivatives NCR169_16–27 and NCR169_17–27 for comparison (Fig. 3.). […] Similar results were obtained with total E. coli RNA (Fig. 3.B). […]

## CC[C@H](C)[C@H](NC(=O)[C@H](CCCCN)NC(=O)[C@H](Cc1ccccc1)NC(=O)[C@H](CC(C)C)NC(=O)[C@@H]1CCCN1C(=O)[C@H](CCCCN)NC(=O)[C@H](CCCCN)NC(=O)[C@H](CO)NC(=O)[C@@H](N)CCCCN)C(=O)N[C@@H](Cc1c[nH]c2ccccc12)C(=O)N[C@@H](CCCCN)C(=O)N[C@@H](CS)C(=O)N[C@H](C(=O)N[C@@H](CCC(=O)O)C(=O)N[C@@H](CC(N)=O)C(=O)N[C@H](C(=O)N[C@@H](CS)C(=O)N[C@H](C(=O)N[C@@H](CC(C)C)C(=O)N[C@@H](Cc1c[nH]c2ccccc12)C(=O)N[C@@H](Cc1ccc(O)cc1)C(=O)N[C@@H](CCCCN)C(N)=O)C(C)C)C(C)C)C(C)C [NCR169C17–38] (H-KSKKPLFKIWKCVENVCVLWYK-NH2; N-terminus assumed)
[1]
  MBC: 6.2 µM (≈ 17 µg/mL)
[2]
  MBC after pre-incubation in human serum: 3.1 µM (≈ 8.49 µg/mL)
[3]
  plasmid DNA binding, gel retardation: complete retention of DNA in the well at higher concentrations
